# Data published in patent publication US20230399319A1, “Acylsulfamide Compound and Pharmaceutical Use Therefor” (Japan Tobacco Inc., priority 2019, published 2023).
# Target: NLRP3 inflammasome (Homo sapiens (Human), UniProt Q96P20)
# Assay: Evaluation of NLRP3 inflammasome inhibitory activity (inhibition of IL-1β production in THP1-Null cells, LPS/Nigericin)
# Settings: not given
# NLRP3 inflammasome, sequence (Q96P20 whole entry): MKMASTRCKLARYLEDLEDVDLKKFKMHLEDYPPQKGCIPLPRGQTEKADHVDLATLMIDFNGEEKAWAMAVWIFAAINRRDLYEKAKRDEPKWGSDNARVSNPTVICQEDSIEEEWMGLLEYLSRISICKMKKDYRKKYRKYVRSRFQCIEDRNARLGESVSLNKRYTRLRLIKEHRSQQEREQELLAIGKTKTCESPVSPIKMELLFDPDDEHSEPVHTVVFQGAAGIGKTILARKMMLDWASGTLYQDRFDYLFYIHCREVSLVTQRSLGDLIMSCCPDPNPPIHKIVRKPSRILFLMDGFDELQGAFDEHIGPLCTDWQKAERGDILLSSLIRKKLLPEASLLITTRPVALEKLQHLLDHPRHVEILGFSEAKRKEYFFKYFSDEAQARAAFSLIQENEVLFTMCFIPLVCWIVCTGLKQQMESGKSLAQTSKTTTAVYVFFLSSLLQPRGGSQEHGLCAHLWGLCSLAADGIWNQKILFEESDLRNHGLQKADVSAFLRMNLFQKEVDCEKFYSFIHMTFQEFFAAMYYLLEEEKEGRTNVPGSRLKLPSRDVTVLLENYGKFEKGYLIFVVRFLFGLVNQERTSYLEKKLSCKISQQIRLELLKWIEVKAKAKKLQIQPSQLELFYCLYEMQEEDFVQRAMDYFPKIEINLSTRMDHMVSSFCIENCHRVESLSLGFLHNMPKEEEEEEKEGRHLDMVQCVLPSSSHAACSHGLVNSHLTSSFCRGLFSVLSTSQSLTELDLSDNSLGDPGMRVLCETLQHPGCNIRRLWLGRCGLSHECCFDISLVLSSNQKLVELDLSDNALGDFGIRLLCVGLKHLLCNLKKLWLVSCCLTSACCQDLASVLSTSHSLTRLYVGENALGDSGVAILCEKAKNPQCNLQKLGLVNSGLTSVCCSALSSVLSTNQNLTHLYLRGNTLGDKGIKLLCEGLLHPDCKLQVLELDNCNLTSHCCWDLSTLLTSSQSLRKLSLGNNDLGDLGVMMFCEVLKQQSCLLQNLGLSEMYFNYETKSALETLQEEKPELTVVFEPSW
row,Structure (SMILES),IC50
1,O=C(NS(=O)(=O)N1CCC(O)C1)c1coc(Nc2c3c(c(Cl)c4c2CCC4)CCC3)n1 (racemic) [Example 41],77 nM
2,COC1CCCN(S(=O)(=O)NC(=O)c2coc(Nc3cc(C(F)(F)F)ccc3C)n2)CC1 (racemic) [Example 2-148],40 nM
3,Cc1ccc(C(F)(F)F)cc1Nc1nc(C(=O)NS(=O)(=O)N2CCOCC(C)C2)co1 (racemic) [Example 2-092],22 nM
4,Cc1ccc(C(F)(F)F)cc1Nc1nc(C(=O)NS(=O)(=O)N2CCCN(S(=O)(=O)C3CCOC3)CC2)co1 (racemic) [Example 2-220],67 nM
5,Cc1ccc(C(F)(F)F)cc1Nc1nc(C(=O)NS(=O)(=O)N2CCOCC2C)co1 (racemic) [Example 2-005],30 nM
6,CC(C)C1COCCN1S(=O)(=O)NC(=O)c1cnc(Nc2c3c(cc4c2CCC4)CCC3)o1 (racemic) [Example 10],210 nM
7,CCS(=O)(=O)N1CCCN(S(=O)(=O)NC(=O)c2coc(Nc3cc(C(F)(F)F)ccc3C)n2)C(C)C1 (racemic) [Example 2-241],37 nM
8,O=C(NS(=O)(=O)N1CCCC1C(F)(F)F)c1coc(Nc2c3c(c(Cl)c4c2CCC4)CCC3)n1 (racemic) [Example 40],930 nM
9,COC1COCCN(S(=O)(=O)NC(=O)c2coc(Nc3cc(C(F)(F)F)ccc3C(C)C)n2)C1 (racemic) [Example 2-121],35 nM
10,Cc1ccc(C(F)(F)F)cc1Nc1nc(C(=O)NS(=O)(=O)N2CCCC(C(=O)N(C)C)CC2)co1 (racemic) [Example 2-157],38 nM
11,CCOC1COCCN(S(=O)(=O)NC(=O)c2coc(Nc3cc(C(F)(F)F)ccc3C)n2)C1 (racemic) [Example 2-318],77 nM
12,Cc1ccc(C(F)(F)F)cc1Nc1nc(C(=O)NS(=O)(=O)N2CCCC(O)CC2)co1 (racemic) [Example 2-156],39 nM
13,COCC1CN(S(=O)(=O)NC(=O)c2coc(Nc3c(C(C)C)ccc4c3CCC4)n2)CCO1 (racemic) [Example 2-120],160 nM
14,Cc1ccc(C(F)(F)F)cc1Nc1nc(C(=O)NS(=O)(=O)N2CCCC(C)(C(=O)N(C)C)CC2)co1 (racemic) [Example 2-259],87 nM
15,CCS(=O)(=O)N1CCN(S(=O)(=O)NC(=O)c2coc(Nc3cc(C)ccc3C)n2)CC(OC)C1 (racemic) [Example 2-252],190 nM
16,Cc1ccc(C(F)(F)F)cc1Nc1nc(C(=O)NS(=O)(=O)N2CCCN(C(=O)C3CCOC3)CC2)co1 (racemic) [Example 2-216],180 nM
17,CN(C)C1CCN(S(=O)(=O)NC(=O)c2coc(Nc3c4c(c(F)c5c3CCC5)CCC4)n2)C1 (racemic) [Example 74],180 nM

# Same assay, conditions: IL-1β production in THP1-Null cells, PMA/LPS primed, Nigericin 7.5 μmol/L
row,Structure (SMILES),IC50
1,O=C(NS(=O)(=O)N1CCCn2nccc21)c1coc(Nc2c3c(c(Cl)c4c2CCC4)CCC3)n1 [Example 46],350 nM
2,COC1CN(S(=O)(=O)NC(=O)c2cnc(Nc3c4c(cc5c3CCC5)CCC4)o2)C1 [Example 17],830 nM
3,CN(C)S(=O)(=O)NC(=O)c1coc(Nc2c3c(cc4c2CCC4)CCC3)n1 [Example 13],48 nM
4,O=C(NS(=O)(=O)N1CCOCC12CCC2)c1cnc(Nc2c3c(cc4c2CCC4)CCC3)o1 [Example 9],210 nM
5,CN(C)S(=O)(=O)NC(=O)c1cnc(Nc2c3c(c(F)c4c2CCC4)CCC3)o1 [Example 26],130 nM
6,CCOC(=O)c1c2c(nn1C)CN(S(=O)(=O)NC(=O)c1coc(Nc3c4c(c(F)c5c3CCC5)CCC4)n1)C2 [Example 67],840 nM
7,CN(C)S(=O)(=O)NC(=O)c1coc(Nc2c3c(c(Cl)c4c2CCC4)CCC3)n1 [Example 28],120 nM
8,O=C(NS(=O)(=O)N1CCCC1)c1coc(Nc2c3c(c(Cl)c4c2CCC4)CCC3)n1 [Example 34],48 nM
9,CC(C)N(C)S(=O)(=O)NC(=O)c1cnc(Nc2c3c(cc4c2CCC4)CCC3)o1 [Example 15],< 30 nM
10,O=C(NS(=O)(=O)N1CCOCC1)c1cnc(Nc2c3c(cc4c2CCC4)CCC3)o1 [Example 2],< 30 nM
11,Cc1ccc(C(F)(F)F)cc1Nc1nc(C(=O)NS(=O)(=O)N2CCC(S(=O)(=O)N(C)C)CC2)co1 [Example 75],32 nM
12,O=C(NS(=O)(=O)N1CCOCC1)c1coc(Nc2c3c(c(Cl)c4c2CCC4)CCC3)n1 [Example 37],< 30 nM
13,O=C1CCN(S(=O)(=O)NC(=O)c2coc(Nc3c4c(c(Cl)c5c3CCC5)CCC4)n2)C1 [Example 65],63 nM
14,CS(=O)(=O)N1CCN(S(=O)(=O)NC(=O)c2coc(Nc3c4c(c(Cl)c5c3CCC5)CCC4)n2)CC1 [Example 55],160 nM
15,O=C(NS(=O)(=O)N1C[C@H]2COC[C@H]2C1)c1coc(Nc2c3c(c(Cl)c4c2CCC4)CCC3)n1 [Example 61],170 nM
16,O=C(NS(=O)(=O)N1CC2CCC(C1)O2)c1coc(Nc2c3c(c(F)c4c2CCC4)CCC3)n1 [Example 59],44 nM
17,CC(=O)NC1CCN(S(=O)(=O)NC(=O)c2coc(Nc3c4c(c(F)c5c3CCC5)CCC4)n2)CC1 [Example 62],270 nM
18,Cn1cc(N(C2CCOCC2)S(=O)(=O)NC(=O)c2cnc(Nc3c4c(cc5c3CCC5)CCC4)o2)cn1 [Example 18],5400 nM

# Same assay, conditions: inhibition of IL-1β production in THP1-Null cells
row,Structure (SMILES),IC50
1,Cc1ccc(C(F)(F)F)cc1Nc1nc(C(=O)NS(=O)(=O)N2CCCn3nccc3C2)co1 [Example 2-254],64 nM
2,Cc1ccc(C(C)C)cc1Nc1nc(C(=O)NS(=O)(=O)N2CCOCC2)cs1 [Example 2-055],< 30 nM
3,CCS(=O)(=O)N1CCCN(S(=O)(=O)NC(=O)c2coc(Nc3cc(C(F)(F)F)ccc3C)n2)CC1 [Example 2-064],26 nM
4,CCCS(=O)(=O)N1CCCN(S(=O)(=O)NC(=O)c2coc(Nc3cc(C(F)F)ccc3C(C)C)n2)CC1 [Example 2-224],27 nM
5,Cc1cnc(C(F)(F)F)cc1Nc1nc(C(=O)NS(=O)(=O)N2CCCOCC2)co1 [Example 2-075],4500 nM
6,Cc1ccc(C(F)(F)F)cc1Nc1nc(C(=O)NS(=O)(=O)N2CCC(S(=O)(=O)NC(C)C)CC2)co1 [Example 2-007],< 30 nM
7,Cc1ccc(C(F)(F)F)cc1Nc1nc(C(=O)NS(=O)(=O)N2CCCN(c3ccncn3)CC2)co1 [Example 2-214],89 nM
8,CCOCC1CCN(S(=O)(=O)NC(=O)c2coc(Nc3cc(C(F)F)ccc3C)n2)CCO1 (stereo not drawn) [Example 2-332],22 nM
9,Cc1ccc(C(F)(F)F)cc1Nc1nc(C(=O)NS(=O)(=O)N2CCCN(c3ncccn3)CC2)co1 [Example 2-183],15 nM
10,CCCCS(=O)(=O)N1CCCN(S(=O)(=O)NC(=O)c2coc(Nc3cc(C)ccc3C)n2)CC1 [Example 2-203],18 nM
11,CC(C)c1cn(C(C)C)nc1Nc1nc(C(=O)NS(=O)(=O)N(C)C(C)C)co1 [Example 2-138],92 nM
12,Cc1ccc(C(F)F)cc1Nc1nc(C(=O)NS(=O)(=O)N2CCCOCC2)co1 [Example 2-043],49 nM
13,Cc1ccc2c(c1Nc1nc(C(=O)NS(=O)(=O)N3CCOCC3)cs1)CCC2 [Example 2-084],140 nM
14,CCCN1CCCN(S(=O)(=O)NC(=O)c2coc(Nc3cc(C(F)(F)F)ccc3C)n2)CC1 [Example 2-154],230 nM
15,CCCS(=O)(=O)N1CCCN(S(=O)(=O)NC(=O)c2coc(Nc3cccc4ocnc34)n2)CC1 [Example 2-271],940 nM
16,Cc1ccc(C(F)(F)F)cc1Nc1nc(C(=O)NS(=O)(=O)N2CCCOCC2)cs1 [Example 2-066],< 30 nM
17,Cc1c(Nc2nc(C(=O)NS(=O)(=O)N3CCCOCC3)co2)c(C(C)C)nn1C(C)C [Example 2-227],1500 nM
18,CC(C)c1nn(C(C)C)cc1Nc1nc(C(=O)NS(=O)(=O)N2CCCN(S(=O)(=O)CC(C)(C)C)CC2)co1 [Example 2-170],600 nM

row,Structure (SMILES),IC50
1,Cc1cn(C(C)C)nc1Nc1nc(C(=O)NS(=O)(=O)N(C)C)co1 [Example 2-039],500 nM
2,Cc1ccc(CC(F)(F)F)cc1Nc1nc(C(=O)NS(=O)(=O)N2CCCOCC2)co1 [Example 2-063],67 nM
3,Cc1cc(F)c(C(F)(F)F)cc1Nc1nc(C(=O)NS(=O)(=O)N2CCCOCC2)co1 [Example 2-213],39 nM
4,Cc1ccc(C(F)(F)F)cc1Nc1nc(C(=O)NS(=O)(=O)N2CCCN(c3cnccn3)CC2)co1 [Example 2-245],73 nM
5,Cc1ccc2c(c1Nc1nc(C(=O)NS(=O)(=O)N(C)C)cs1)CCC2 [Example 2-083],490 nM
6,Cc1ccc(C(C)C)cc1Nc1nc(C(=O)NS(=O)(=O)N2CCOC(COC(F)F)CC2)co1 (stereo not drawn) [Example 2-326],26 nM
7,CCN(C)S(=O)(=O)N1CCCN(S(=O)(=O)NC(=O)c2coc(Nc3cc(C(F)(F)F)ccc3C)n2)CC1 [Example 2-129],20 nM
8,CCCS(=O)(=O)N1CCCN(S(=O)(=O)NC(=O)c2coc(Nc3cc(C)ccc3C)n2)CC1 [Example 2-228],28 nM
9,Cc1ccc(C)c(Nc2nc(C(=O)NS(=O)(=O)N3CCCOCC3)co2)c1 [Example 2-073],280 nM
10,CCCC(=O)N1CCCN(S(=O)(=O)NC(=O)c2coc(Nc3cc(C(F)(F)F)ccc3C)n2)CC1 [Example 2-215],61 nM
11,COCCOCC1CCN(S(=O)(=O)NC(=O)c2coc(Nc3cc(C)ccc3C)n2)CCO1 (stereo not drawn) [Example 2-345],71 nM
12,Cc1cn(C(C)C)nc1Nc1nc(C(=O)NS(=O)(=O)N2CCCOCC2)co1 [Example 2-147],420 nM
13,Cc1ccc(C(C)C)c(Nc2nc(C(=O)NS(=O)(=O)N3CCCOCC3)co2)c1 [Example 2-308],82 nM
14,CC(C)n1nc2c(c1Nc1nc(C(=O)NS(=O)(=O)N(C)C)co1)CCC2 [Example 2-014],6000 nM
15,CC(=O)NC1CCN(S(=O)(=O)NC(=O)c2coc(Nc3cc(C(F)(F)F)ccc3C)n2)CC1 [Example 2-033],150 nM
16,Cc1cnn(C2CCCN(S(=O)(=O)NC(=O)c3coc(Nc4cc(C(F)(F)F)ccc4C)n3)CC2)c1 (stereo not drawn) [Example 2-298],67 nM
17,Cc1cnc(C(F)(F)F)cc1Nc1nc(C(=O)NS(=O)(=O)N(C)C)co1 [Example 2-074],11000 nM

# Same assay, conditions: read-out: % inhibition at 3 μM
row,Structure (SMILES),inhibition at 3 µM
1,CCc1nn(C(C)C)cc1Nc1nc(C(=O)NS(=O)(=O)N2CCCOCC2)co1 [Example 2-193],46%
2,Cc1cn(CC(C)C)nc1Nc1nc(C(=O)NS(=O)(=O)N2CCCOCC2)co1 [Example 2-189],16%
